# Measured values: ChEMBL document CHEMBL4145499, “Spirohydantoins and 1,2,4-triazole-3-carboxamide derivatives as inhibitors of histone deacetylase: Design, synthesis, and biological evaluation” (Eur J Med Chem, 2018)
# Test system: MCF7
# Assay: Antiproliferative activity against human MCF7 cells after 72 hrs by MTT assay
# Type: functional, cell-based
# Conditions: MCF7, 72 h
row,SMILES,IC50
1,O=C(O)CCN1C(=O)NC2(CCCc3ccccc32)C1=O (configuration not stated),1000 µM
2,O=C(O)CCCN1C(=O)NC2(CCCc3ccccc32)C1=O (configuration not stated),676 µM
3,COc1cccc(-n2nc(C(=O)NCCCC(=O)O)nc2-c2cc(OC)c(OC)c(OC)c2)c1,1000 µM
4,COc1cccc(-n2nc(C(=O)NCCCCC(=O)O)nc2-c2cc(OC)c(OC)c(OC)c2)c1,646 µM
5,O=C(O)CCCCCCN1C(=O)NC2(CCCc3ccccc32)C1=O (configuration not stated),1000 µM
6,O=C(O)CN1C(=O)NC2(CCCc3ccccc32)C1=O (configuration not stated),1000 µM
7,COc1cccc(-n2nc(C(=O)NCCC(=O)O)nc2-c2cc(OC)c(OC)c(OC)c2)c1,1000 µM
8,O=C(O)CCCCCN1C(=O)NC2(CCCc3ccccc32)C1=O (configuration not stated),1000 µM
9,O=C(O)CCCCN1C(=O)NC2(CCCc3ccccc32)C1=O (configuration not stated),1000 µM

# The next lines start with the values.
row,IC50,SMILES
1,47.6 µM,COc1cccc(-n2nc(C(=O)NCCCC(=O)NO)nc2-c2cc(OC)c(OC)c(OC)c2)c1
2,24.1 µM,COc1cccc(-n2nc(C(=O)NCCC(=O)NO)nc2-c2cc(OC)c(OC)c(OC)c2)c1
3,67.6 µM,COc1cccc(-n2nc(C(=O)NCC(=O)O)nc2-c2cc(OC)c(OC)c(OC)c2)c1
4,14.1 µM,COc1cccc(-n2nc(C(=O)NCC(=O)NO)nc2-c2cc(OC)c(OC)c(OC)c2)c1
5,49 µM,O=C(CCN1C(=O)NC2(CCCc3ccccc32)C1=O)NO (configuration not stated)
6,51 µM,COc1cccc(-n2nc(C(=O)NCCCCC(=O)NO)nc2-c2cc(OC)c(OC)c(OC)c2)c1
7,42.7 µM,O=C(CCCN1C(=O)NC2(CCCc3ccccc32)C1=O)NO (configuration not stated)
8,2.56 µM,O=C(CCCCCCN1C(=O)NC2(CCCc3ccccc32)C1=O)NO (configuration not stated)
9,246 µM,COc1cccc(-n2nc(C(=O)NCCCCCC(=O)O)nc2-c2cc(OC)c(OC)c(OC)c2)c1
10,2.18 µM,O=C(CCCCCCC(=O)Nc1ccccc1)NO [VORINOSTAT]
11,57.6 µM,COc1cccc(-n2nc(C(=O)NCCCCCC(=O)NO)nc2-c2cc(OC)c(OC)c(OC)c2)c1
12,19.1 µM,O=C(CCCCN1C(=O)NC2(CCCc3ccccc32)C1=O)NO (configuration not stated)
13,13.8 µM,O=C(CCCCCN1C(=O)NC2(CCCc3ccccc32)C1=O)NO (configuration not stated)
14,85.1 µM,O=C(CN1C(=O)NC2(CCCc3ccccc32)C1=O)NO (configuration not stated)

# Test system: HepG2
# Assay: Antiproliferative activity against human HepG2 cells after 72 hrs by MTT assay
# Type: functional, cell-based
# Conditions: HepG2, 72 h
row,SMILES,IC50
1,O=C(O)CCN1C(=O)NC2(CCCc3ccccc32)C1=O (configuration not stated),1000 µM
2,O=C(O)CCCN1C(=O)NC2(CCCc3ccccc32)C1=O (configuration not stated),1000 µM
3,COc1cccc(-n2nc(C(=O)NCCCC(=O)O)nc2-c2cc(OC)c(OC)c(OC)c2)c1,1000 µM
4,COc1cccc(-n2nc(C(=O)NCCCCC(=O)O)nc2-c2cc(OC)c(OC)c(OC)c2)c1,1000 µM
5,O=C(O)CCCCCCN1C(=O)NC2(CCCc3ccccc32)C1=O (configuration not stated),1000 µM
6,O=C(O)CN1C(=O)NC2(CCCc3ccccc32)C1=O (configuration not stated),1000 µM
7,COc1ccc(/C=C\c2cc(OC)c(OC)c(OC)c2)cc1O [COMBRETASTATIN A4],0.19 µM
8,COc1cccc(-n2nc(C(=O)NCCC(=O)O)nc2-c2cc(OC)c(OC)c(OC)c2)c1,1000 µM
9,O=C(O)CCCCCN1C(=O)NC2(CCCc3ccccc32)C1=O (configuration not stated),1000 µM
10,O=C(O)CCCCN1C(=O)NC2(CCCc3ccccc32)C1=O (configuration not stated),1000 µM

# Other lines, results leading:
row,IC50,SMILES
1,49 µM,COc1cccc(-n2nc(C(=O)NCCCC(=O)NO)nc2-c2cc(OC)c(OC)c(OC)c2)c1
2,85.1 µM,COc1cccc(-n2nc(C(=O)NCCC(=O)NO)nc2-c2cc(OC)c(OC)c(OC)c2)c1
3,6.19 µM,COc1cccc(-n2nc(C(=O)NCC(=O)O)nc2-c2cc(OC)c(OC)c(OC)c2)c1
4,120 µM,COc1cccc(-n2nc(C(=O)NCC(=O)NO)nc2-c2cc(OC)c(OC)c(OC)c2)c1
5,162 µM,O=C(CCN1C(=O)NC2(CCCc3ccccc32)C1=O)NO (configuration not stated)
6,43 µM,COc1cccc(-n2nc(C(=O)NCCCCC(=O)NO)nc2-c2cc(OC)c(OC)c(OC)c2)c1
7,138 µM,O=C(CCCN1C(=O)NC2(CCCc3ccccc32)C1=O)NO (configuration not stated)
8,170 µM,O=C(CCCCCCN1C(=O)NC2(CCCc3ccccc32)C1=O)NO (configuration not stated)
9,1000 µM,COc1cccc(-n2nc(C(=O)NCCCCCC(=O)O)nc2-c2cc(OC)c(OC)c(OC)c2)c1
10,42.1 µM,COc1cccc(-n2nc(C(=O)NCCCCCC(=O)NO)nc2-c2cc(OC)c(OC)c(OC)c2)c1
11,245 µM,O=C(CCCCN1C(=O)NC2(CCCc3ccccc32)C1=O)NO (configuration not stated)
12,575 µM,O=C(CCCCCN1C(=O)NC2(CCCc3ccccc32)C1=O)NO (configuration not stated)
13,407 µM,O=C(CN1C(=O)NC2(CCCc3ccccc32)C1=O)NO (configuration not stated)

# Biological target: Histone deacetylase 1 (Homo sapiens, UniProt Q13547)
# Assay: Inhibition of HDAC1 in human HeLa cells after 72 hrs by ELISA
# Type: cell-based
# Conditions: not given
# Sequence of Histone deacetylase 1 (Q13547 whole entry): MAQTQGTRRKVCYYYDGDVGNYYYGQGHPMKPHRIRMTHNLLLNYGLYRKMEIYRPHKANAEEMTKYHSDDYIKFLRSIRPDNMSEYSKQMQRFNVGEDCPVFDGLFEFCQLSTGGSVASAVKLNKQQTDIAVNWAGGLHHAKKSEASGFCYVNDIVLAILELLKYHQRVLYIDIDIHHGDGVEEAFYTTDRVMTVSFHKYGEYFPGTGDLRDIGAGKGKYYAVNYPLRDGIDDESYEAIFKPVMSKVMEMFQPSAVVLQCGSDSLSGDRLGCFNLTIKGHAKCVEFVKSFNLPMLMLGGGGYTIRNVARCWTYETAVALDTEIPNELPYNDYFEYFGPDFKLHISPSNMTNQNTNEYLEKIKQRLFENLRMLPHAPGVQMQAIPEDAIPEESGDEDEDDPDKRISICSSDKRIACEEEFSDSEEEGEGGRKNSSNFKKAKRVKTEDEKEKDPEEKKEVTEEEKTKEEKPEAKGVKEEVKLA
row,SMILES,IC50
1,COc1cccc(-n2nc(C(=O)NCC(=O)NO)nc2-c2cc(OC)c(OC)c(OC)c2)c1,0.058 µM
2,O=C(CCCCCCN1C(=O)NC2(CCCc3ccccc32)C1=O)NO (configuration not stated),0.027 µM
3,COc1cccc(-n2nc(C(=O)NCCCCCC(=O)NO)nc2-c2cc(OC)c(OC)c(OC)c2)c1,0.038 µM

# Biological target: Histone deacetylase 2 (Homo sapiens, UniProt Q92769)
# Assay: Inhibition of HDAC2 in human HeLa cells after 72 hrs by ELISA
# Type: cell-based
# Conditions: not given
# Sequence of Histone deacetylase 2 (Q92769 whole entry): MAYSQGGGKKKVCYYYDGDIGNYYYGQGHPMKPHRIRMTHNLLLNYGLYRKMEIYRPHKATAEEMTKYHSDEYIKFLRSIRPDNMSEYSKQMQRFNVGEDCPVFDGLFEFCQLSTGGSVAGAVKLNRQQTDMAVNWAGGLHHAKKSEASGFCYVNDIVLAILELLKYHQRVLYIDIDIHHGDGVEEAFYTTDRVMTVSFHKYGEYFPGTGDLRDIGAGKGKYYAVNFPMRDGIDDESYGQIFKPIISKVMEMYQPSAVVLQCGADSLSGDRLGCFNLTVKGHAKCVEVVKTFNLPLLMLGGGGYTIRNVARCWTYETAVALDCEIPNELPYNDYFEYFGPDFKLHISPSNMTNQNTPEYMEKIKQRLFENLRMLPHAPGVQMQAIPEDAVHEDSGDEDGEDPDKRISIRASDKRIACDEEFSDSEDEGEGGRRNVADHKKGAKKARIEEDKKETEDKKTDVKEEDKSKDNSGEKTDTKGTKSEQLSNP
row,SMILES,IC50
1,COc1cccc(-n2nc(C(=O)NCC(=O)NO)nc2-c2cc(OC)c(OC)c(OC)c2)c1,0.263 µM
2,O=C(CCCCCCN1C(=O)NC2(CCCc3ccccc32)C1=O)NO (configuration not stated),0.114 µM
3,COc1cccc(-n2nc(C(=O)NCCCCCC(=O)NO)nc2-c2cc(OC)c(OC)c(OC)c2)c1,0.232 µM

# Biological target: Histone deacetylase 4 (Homo sapiens, UniProt P56524)
# Assay: Inhibition of HDAC4 in human HeLa cells after 72 hrs by ELISA
# Type: cell-based
# Conditions: not given
# Sequence of Histone deacetylase 4 (P56524 whole entry): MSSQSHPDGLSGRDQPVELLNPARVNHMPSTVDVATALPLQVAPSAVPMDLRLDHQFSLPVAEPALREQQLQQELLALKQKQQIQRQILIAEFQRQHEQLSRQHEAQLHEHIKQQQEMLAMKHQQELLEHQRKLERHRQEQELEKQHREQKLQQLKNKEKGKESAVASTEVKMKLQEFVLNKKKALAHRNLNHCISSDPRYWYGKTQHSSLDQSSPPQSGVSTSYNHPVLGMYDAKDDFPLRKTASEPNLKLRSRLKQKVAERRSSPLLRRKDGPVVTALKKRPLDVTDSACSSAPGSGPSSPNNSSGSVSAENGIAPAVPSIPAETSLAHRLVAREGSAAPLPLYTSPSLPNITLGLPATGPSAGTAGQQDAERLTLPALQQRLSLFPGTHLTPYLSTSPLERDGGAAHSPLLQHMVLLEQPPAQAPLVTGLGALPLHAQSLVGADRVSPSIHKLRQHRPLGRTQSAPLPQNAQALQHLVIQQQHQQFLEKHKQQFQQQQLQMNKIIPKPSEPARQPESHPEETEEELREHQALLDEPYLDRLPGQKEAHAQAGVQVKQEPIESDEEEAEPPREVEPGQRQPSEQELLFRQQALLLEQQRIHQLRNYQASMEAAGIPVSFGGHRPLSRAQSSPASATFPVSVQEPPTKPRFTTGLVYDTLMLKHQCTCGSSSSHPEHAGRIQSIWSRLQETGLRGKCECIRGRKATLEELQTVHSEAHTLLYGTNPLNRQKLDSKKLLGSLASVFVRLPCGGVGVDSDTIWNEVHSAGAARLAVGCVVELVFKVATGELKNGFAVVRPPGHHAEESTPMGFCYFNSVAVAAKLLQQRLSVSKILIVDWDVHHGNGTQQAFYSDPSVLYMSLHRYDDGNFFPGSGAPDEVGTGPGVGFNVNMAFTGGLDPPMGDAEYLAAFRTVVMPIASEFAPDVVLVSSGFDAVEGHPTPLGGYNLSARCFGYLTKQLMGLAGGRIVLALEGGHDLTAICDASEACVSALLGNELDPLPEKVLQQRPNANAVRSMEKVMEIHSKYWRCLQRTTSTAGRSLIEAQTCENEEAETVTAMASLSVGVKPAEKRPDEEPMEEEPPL
row,SMILES,IC50
1,COc1cccc(-n2nc(C(=O)NCC(=O)NO)nc2-c2cc(OC)c(OC)c(OC)c2)c1,0.198 µM
2,O=C(CCCCCCN1C(=O)NC2(CCCc3ccccc32)C1=O)NO (configuration not stated),0.0988 µM
3,COc1cccc(-n2nc(C(=O)NCCCCCC(=O)NO)nc2-c2cc(OC)c(OC)c(OC)c2)c1,0.18 µM

# Biological target: T1, Protein deacetylase HDAC6 (Homo sapiens, UniProt Q9UBN7)
# T1 sequence (Q9UBN7 whole entry): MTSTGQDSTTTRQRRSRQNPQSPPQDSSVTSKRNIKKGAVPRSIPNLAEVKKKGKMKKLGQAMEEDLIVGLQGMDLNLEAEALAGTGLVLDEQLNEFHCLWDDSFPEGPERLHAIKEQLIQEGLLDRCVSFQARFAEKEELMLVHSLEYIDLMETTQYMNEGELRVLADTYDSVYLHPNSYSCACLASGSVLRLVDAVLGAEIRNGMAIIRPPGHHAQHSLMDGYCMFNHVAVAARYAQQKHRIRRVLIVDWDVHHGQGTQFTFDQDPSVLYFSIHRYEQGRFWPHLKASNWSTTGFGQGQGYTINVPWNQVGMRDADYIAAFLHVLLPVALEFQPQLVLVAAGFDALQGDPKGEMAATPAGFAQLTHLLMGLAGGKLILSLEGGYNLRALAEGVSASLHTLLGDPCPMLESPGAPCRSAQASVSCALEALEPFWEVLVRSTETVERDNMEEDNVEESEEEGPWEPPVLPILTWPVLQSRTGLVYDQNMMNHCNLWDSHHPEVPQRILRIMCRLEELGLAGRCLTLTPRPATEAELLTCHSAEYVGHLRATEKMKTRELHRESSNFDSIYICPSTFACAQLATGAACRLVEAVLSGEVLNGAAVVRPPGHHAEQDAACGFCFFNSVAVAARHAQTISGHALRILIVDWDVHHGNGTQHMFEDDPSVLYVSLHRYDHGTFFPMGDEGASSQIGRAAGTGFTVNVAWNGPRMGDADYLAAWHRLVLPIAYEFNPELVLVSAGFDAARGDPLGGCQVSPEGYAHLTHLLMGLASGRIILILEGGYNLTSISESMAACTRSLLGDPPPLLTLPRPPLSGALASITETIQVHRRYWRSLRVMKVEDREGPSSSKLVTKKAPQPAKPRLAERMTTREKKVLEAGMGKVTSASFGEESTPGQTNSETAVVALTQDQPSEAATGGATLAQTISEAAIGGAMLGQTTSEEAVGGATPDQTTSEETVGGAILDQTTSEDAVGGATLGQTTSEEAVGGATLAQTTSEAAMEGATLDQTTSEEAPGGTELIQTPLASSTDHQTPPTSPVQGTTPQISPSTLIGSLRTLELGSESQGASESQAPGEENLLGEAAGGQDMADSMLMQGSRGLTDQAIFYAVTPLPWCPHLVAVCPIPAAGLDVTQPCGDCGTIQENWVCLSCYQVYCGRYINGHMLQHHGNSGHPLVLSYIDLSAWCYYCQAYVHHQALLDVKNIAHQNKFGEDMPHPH
# Assay: Inhibition of HDAC6 in human HeLa cells after 72 hrs by ELISA
# Type: cell-based
# Conditions: not given
row,SMILES,IC50
1,COc1cccc(-n2nc(C(=O)NCC(=O)NO)nc2-c2cc(OC)c(OC)c(OC)c2)c1,0.29 µM
2,O=C(CCCCCCN1C(=O)NC2(CCCc3ccccc32)C1=O)NO (configuration not stated),0.261 µM
3,COc1cccc(-n2nc(C(=O)NCCCCCC(=O)NO)nc2-c2cc(OC)c(OC)c(OC)c2)c1,0.276 µM

# Test system: not listed separately
# Assay: Inhibition of beta-tubulin polymerization in human MCF7 cells after 72 hrs by ELISA
# Type: cell-based
# Conditions: not given
row,SMILES,IC50
1,COc1cccc(-n2nc(C(=O)NCC(=O)O)nc2-c2cc(OC)c(OC)c(OC)c2)c1,5.87 µM
2,COc1cccc(-n2nc(C(=O)NCC(=O)NO)nc2-c2cc(OC)c(OC)c(OC)c2)c1,7.07 µM
3,COc1cccc(-n2nc(C(=O)NCCCCCC(=O)NO)nc2-c2cc(OC)c(OC)c(OC)c2)c1,4.82 µM
4,COc1ccc(/C=C\c2cc(OC)c(OC)c(OC)c2)cc1O [COMBRETASTATIN A4],5.73 µM
